Assay results: BindingDB's records for doi:10.1016/j.bmcl.2010.03.092 (Takeda California, 2010)

Each molecule was assayed against Histone deacetylase 2 (Homo sapiens) (UniProt Q92769) (assay: Inhibition of human recombinant HDAC2).
Chain of Histone deacetylase 2 (Homo sapiens) (Q92769 whole entry, looked up): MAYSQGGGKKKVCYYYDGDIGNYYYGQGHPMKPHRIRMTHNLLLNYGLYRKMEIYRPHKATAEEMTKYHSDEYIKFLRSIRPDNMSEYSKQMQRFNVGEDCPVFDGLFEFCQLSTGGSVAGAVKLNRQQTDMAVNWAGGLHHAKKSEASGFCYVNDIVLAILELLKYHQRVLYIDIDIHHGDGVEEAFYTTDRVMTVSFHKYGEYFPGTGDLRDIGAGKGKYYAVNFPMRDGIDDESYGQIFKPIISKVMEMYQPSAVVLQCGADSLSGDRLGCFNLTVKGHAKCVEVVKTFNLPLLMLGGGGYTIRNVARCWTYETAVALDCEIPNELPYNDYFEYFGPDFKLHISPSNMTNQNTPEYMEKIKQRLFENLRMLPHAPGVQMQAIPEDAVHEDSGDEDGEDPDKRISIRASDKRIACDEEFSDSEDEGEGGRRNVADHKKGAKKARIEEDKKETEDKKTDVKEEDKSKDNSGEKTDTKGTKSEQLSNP

Structure (SMILES)	IC50 [nM]
CCN1CCC[C@H](n2c(-c3cccc(/C=C/C(=O)NO)c3)nc3ccccc32)C1 [(S)-3-(3-(1-(1-ethylpiperidin-3-yl)-1H-benzo[d]imidazol-2-yl)phenyl)-N-hydroxyacrylamide]	31
Cc1nc(Cc2ccccc2)n(CCc2ccccc2)c1-c1cccc(/C=C/C(=O)NO)c1 [3-(3-(2-benzyl-4-methyl-1-phenethyl-1H-imidazol-5-yl)phenyl)-N-hydroxyacrylamide]	40
CN(C)CCn1c(-c2cccc(/C=C/C(=O)NO)c2)nc2ccccc21 [3-(3-(1-(2-(dimethylamino)ethyl)-1H-benzo[d]imidazol-2-yl)phenyl)-N-hydroxyacrylamide]	63
Cc1nc(C)n(CCc2ccccc2)c1-c1cccc(/C=C/C(=O)NO)c1 [3-(3-(2,4-dimethyl-1-phenethyl-1H-imidazol-5-yl)phenyl)-N-hydroxyacrylamide]	79
COc1ccc(-n2c(-c3cccc(/C=C/C(=O)NO)c3)nc3ccccc32)cc1 [N-hydroxy-3-(3-(1-(4-methoxyphenyl)-1H-benzo[d]imidazol-2-yl)phenyl)acrylamide]	40
Cc1nc(-c2cccc(/C=C/C(=O)NO)c2)n(CCN2CCOCC2)c1C [3-(3-(4,5-dimethyl-1-(2-morpholinoethyl)-1H-imidazol-2-yl)phenyl)-N-hydroxyacrylamide]	31
O=C(/C=C/c1cccc(-c2nc3ccccc3n2Cc2ccccc2)c1)NO [3-(3-(1-benzyl-1H-benzo[d]imidazol-2-yl)phenyl)-N-hydroxyacrylamide]	50
O=C(/C=C/c1cccc(-c2nc3ccccc3n2CC2CCNCC2)c1)NO [N-hydroxy-3-(3-(1-(piperidin-4-ylmethyl)-1H-benzo[d]imidazol-2-yl)phenyl)acrylamide]	160
O=C(/C=C/c1cccc(-c2nc3ccccc3n2CCN2CCCC2)c1)NO [N-hydroxy-3-(3-(1-(2-(pyrrolidin-1-yl)ethyl)-1H-benzo[d]imidazol-2-yl)phenyl)acrylamide]	16
CC(C)N(CCn1c(-c2cccc(/C=C/C(=O)NO)c2)nc2ccccc21)C(C)C [3-(3-(1-(2-(diisopropylamino)ethyl)-1H-benzo[d]imidazol-2-yl)phenyl)-N-hydroxyacrylamide]	40
CC(C)n1c(-c2cccc(/C=C/C(=O)NO)c2)nc2ccccc21 [N-hydroxy-3-(3-(1-isopropyl-1H-benzo[d]imidazol-2-yl)phenyl)acrylamide]	79
O=C(/C=C/c1cccc(-c2nc3ccccc3n2-c2ccccc2)c1)NO [N-hydroxy-3-(3-(1-phenyl-1H-benzo[d]imidazol-2-yl)phenyl)acrylamide]	63
O=C(/C=C/c1cccc(-c2nc3ccccc3[nH]2)c1)NO [3-(3-(1H-benzo[d]imidazol-2-yl)phenyl)-N-hydroxyacrylamide]	100
C[C@H](c1ccccc1)n1c(-c2cccc(/C=C/C(=O)NO)c2)nc2ccccc21 [(R)-N-hydroxy-3-(3-(1-(1-phenylethyl)-1H-benzo[d]imidazol-2-yl)phenyl)acrylamide]	25
CCN(CC)CCn1c(-c2cccc(/C=C/C(=O)NO)c2)nc2ccccc21 [3-(3-(1-(2-(diethylamino)ethyl)-1H-benzo[d]imidazol-2-yl)phenyl)-N-hydroxyacrylamide]	31
O=C(/C=C/c1cccc(-c2nc3ccccc3n2CCN2CCOCC2)c1)NO [N-hydroxy-3-(3-(1-(2-morpholinoethyl)-1H-benzo[d]imidazol-2-yl)phenyl)acrylamide]	50
O=C(/C=C/c1cccc(-c2nc3ccccc3n2[C@@H]2CCCNC2)c1)NO [(R)-N-hydroxy-3-(3-(1-(piperidin-3-yl)-1H-benzo[d]imidazol-2-yl)phenyl)acrylamide]	12
Cn1c(-c2cccc(/C=C/C(=O)NO)c2)nc2ccccc21 [N-hydroxy-3-(3-(1-methyl-1H-benzo[d]imidazol-2-yl)phenyl)acrylamide]	120
CCN1CCCC(n2c(-c3cccc(/C=C/C(=O)NO)c3)nc3ccccc32)C1 (racemic) [(+/-)-3-(3-(1-(1-ethylpiperidin-3-yl)-1H-benzo[d]imidazol-2-yl)phenyl)-N-hydroxyacrylamide]	20
Cc1nc(-c2cccc(/C=C/C(=O)NO)c2)n(CCN2CCOCC2)c1-c1ccccc1 [N-hydroxy-3-(3-(4-methyl-1-(2-morpholinoethyl)-5-phenyl-1H-imidazol-2-yl)phenyl)acrylamide]	31
CCN1CCC[C@@H](n2c(Cc3ccccc3)nc(C)c2-c2cccc(/C=C/C(=O)NO)c2)C1 [(R)-3-(3-(2-benzyl-1-(1-ethylpiperidin-3-yl)-4-methyl-1H-imidazol-5-yl)phenyl)-N-hydroxyacrylamide]	120

The next lines start with the values.

IC50 [nM]	Structure (SMILES)
10	Cc1nc(-c2cccc(/C=C/C(=O)NO)c2)n(CCN2CCOCC2)c1Cc1ccccc1 [3-(3-(5-benzyl-4-methyl-1-(2-morpholinoethyl)-1H-imidazol-2-yl)phenyl)-N-hydroxyacrylamide]
12	O=C(/C=C/c1cccc(-c2nc3ccccc3n2CCCc2ccccc2)c1)NO [N-hydroxy-3-(3-(1-(3-phenylpropyl)-1H-benzo[d]imidazol-2-yl)phenyl)acrylamide]
7.9	O=C(/C=C/c1cccc(-c2nc3ccccc3n2CCc2ccccc2)c1)NO [N-hydroxy-3-(3-(1-phenethyl-1H-benzo[d]imidazol-2-yl)phenyl)acrylamide]
5	Cc1c(-c2ccccc2)nc(-c2cccc(/C=C/C(=O)NO)c2)n1CCc1ccccc1 [N-hydroxy-3-(3-(5-methyl-1-phenethyl-4-phenyl-1H-imidazol-2-yl)phenyl)acrylamide]
12	Cc1c(Cc2ccccc2)nc(-c2cccc(/C=C/C(=O)NO)c2)n1CCN1CCOCC1 [3-(3-(4-benzyl-5-methyl-1-(2-morpholinoethyl)-1H-imidazol-2-yl)phenyl)-N-hydroxyacrylamide]
7.9	Cc1c(Cc2ccccc2)nc(-c2cccc(/C=C/C(=O)NO)c2)n1CCc1ccccc1 [3-(3-(4-benzyl-5-methyl-1-phenethyl-1H-imidazol-2-yl)phenyl)-N-hydroxyacrylamide]
5	Cc1c(-c2ccccc2)nc(-c2cccc(/C=C/C(=O)NO)c2)n1[C@@H]1CCCN(C)C1 [(R)-N-hydroxy-3-(3-(5-methyl-1-(1-methylpiperidin-3-yl)-4-phenyl-1H-imidazol-2-yl)phenyl)acrylamide]
10	Cc1c(-c2ccccc2)nc(-c2cccc(/C=C/C(=O)NO)c2)n1CCN1CCOCC1 [N-hydroxy-3-(3-(5-methyl-1-(2-morpholinoethyl)-4-phenyl-1H-imidazol-2-yl)phenyl)acrylamide]
7.9	Cc1nc(-c2cccc(/C=C/C(=O)NO)c2)n(CCc2ccccc2)c1-c1ccccc1 [N-hydroxy-3-(3-(4-methyl-1-phenethyl-5-phenyl-1H-imidazol-2-yl)phenyl)acrylamide]
7.9	Cc1nc(-c2cccc(/C=C/C(=O)NO)c2)n(CCc2ccccc2)c1C [3-(3-(4,5-dimethyl-1-phenethyl-1H-imidazol-2-yl)phenyl)-N-hydroxyacrylamide]
7.9	CCN1CCC[C@@H](n2c(-c3cccc(/C=C/C(=O)NO)c3)nc(C)c2-c2ccccc2)C1 [(R)-3-(3-(1-(1-ethylpiperidin-3-yl)-4-methyl-5-phenyl-1H-imidazol-2-yl)phenyl)-N-hydroxyacrylamide]
12	CCN1CCC[C@@H](n2c(-c3cccc(/C=C/C(=O)NO)c3)nc(C)c2C)C1 [(R)-3-(3-(1-(1-ethylpiperidin-3-yl)-4,5-dimethyl-1H-imidazol-2-yl)phenyl)-N-hydroxyacrylamide]
6.3	Cc1nc(-c2cccc(/C=C/C(=O)NO)c2)n([C@@H]2CCCN(C(C)C)C2)c1-c1ccccc1 [(R)-N-hydroxy-3-(3-(1-(1-isopropylpiperidin-3-yl)-4-methyl-5-phenyl-1H-imidazol-2-yl)phenyl)acrylamide]
10	CCN1CCC[C@@H](n2c(-c3cccc(/C=C/C(=O)NO)c3)nc3ccccc32)C1 [(R)-3-(3-(1-(1-ethylpiperidin-3-yl)-1H-benzo[d]imidazol-2-yl)phenyl)-N-hydroxyacrylamide]
10	Cc1nc(-c2cccc(/C=C/C(=O)NO)c2)n([C@@H]2CCCN(C)C2)c1-c1ccccc1 [(R)-N-hydroxy-3-(3-(4-methyl-1-(1-methylpiperidin-3-yl)-5-phenyl-1H-imidazol-2-yl)phenyl)acrylamide]
5	Cc1nc(-c2cccc(/C=C/C(=O)NO)c2)n(CCc2ccccc2)c1Cc1ccccc1 [3-(3-(5-benzyl-4-methyl-1-phenethyl-1H-imidazol-2-yl)phenyl)-N-hydroxyacrylamide]
10	O=C(/C=C/c1cccc(-c2nc3ccccc3n2CCN2CCCCC2)c1)NO [N-hydroxy-3-(3-(1-(2-(piperidin-1-yl)ethyl)-1H-benzo[d]imidazol-2-yl)phenyl)acrylamide]
10	CCN1CCC[C@@H](n2c(-c3cccc(/C=C/C(=O)NO)c3)nc(Cc3ccccc3)c2C)C1 [(R)-3-(3-(4-benzyl-1-(1-ethylpiperidin-3-yl)-5-methyl-1H-imidazol-2-yl)phenyl)-N-hydroxyacrylamide]
5	Cc1c(-c2ccccc2)nc(-c2cccc(/C=C/C(=O)NO)c2)n1[C@@H]1CCCN(C(C)C)C1 [(R)-N-hydroxy-3-(3-(1-(1-isopropylpiperidin-3-yl)-5-methyl-4-phenyl-1H-imidazol-2-yl)phenyl)acrylamide]
10	CN1CCC[C@@H](n2c(-c3cccc(/C=C/C(=O)NO)c3)nc3ccccc32)C1 [(R)-N-hydroxy-3-(3-(1-(1-methylpiperidin-3-yl)-1H-benzo[d]imidazol-2-yl)phenyl)acrylamide]
6.3	Cc1c(Cc2ccccc2)nc(-c2cccc(/C=C/C(=O)NO)c2)n1[C@@H]1CCCN(C)C1 [(R)-3-(3-(4-benzyl-5-methyl-1-(1-methylpiperidin-3-yl)-1H-imidazol-2-yl)phenyl)-N-hydroxyacrylamide]
